pIC50: −log10 of the molar value. A value given as a limit tells only on which side of the number the result lay.

The test addresses T1, TAK1-TAB1 fusion protein (Homo sapiens, UniProt O43318).
T1 construct: purchased Upstate 14-600
T1 sequence (O43318 with tags, fused parts or gaps limits assumed): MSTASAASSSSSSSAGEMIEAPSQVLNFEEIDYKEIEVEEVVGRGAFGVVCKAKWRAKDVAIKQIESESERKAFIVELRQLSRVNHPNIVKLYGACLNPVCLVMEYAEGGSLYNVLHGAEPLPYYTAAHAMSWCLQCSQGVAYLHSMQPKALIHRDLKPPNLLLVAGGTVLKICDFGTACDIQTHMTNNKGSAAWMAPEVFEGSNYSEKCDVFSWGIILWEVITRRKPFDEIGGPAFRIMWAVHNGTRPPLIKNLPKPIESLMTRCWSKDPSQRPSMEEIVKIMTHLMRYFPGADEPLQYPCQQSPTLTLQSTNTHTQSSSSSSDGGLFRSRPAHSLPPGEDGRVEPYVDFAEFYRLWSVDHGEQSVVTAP
In words: In vitro TAK1 kinase assay (33P-ATP, casein substrate). Type of test: biochemical. The settings on record: semi-quantitative score, at least two independent experiments. As for the experimental part: For assessing TAK1 inhibition, active TAK1-TAB1 fusion protein was used from Upstate (Cat. No, 14-600). Kinase reactions are set up in 96-well polypropylene plates in 25 μL containing 0.5 mU TAK1-TAB1 fusion protein, […], 0.01 μCi/μL [^33P]-γ-ATP, 0.1 mg/mL casein substrate in 1× reaction buffer containing 10 mM MOPS pH 7.0, 1 mM EDTA.
Starting from the compound master stocks (all at 10 mM concentration in 100% DMSO) a 3-fold serial dilution is made in 96-well plates in 100% DMSO. Plates are further diluted […] in H2O containing 3.5% DMSO, to obtain an intermediate work stock with compounds at 5× the final assay concentration in 5% DMSO.
5 μL of the intermediate stock is transferred into V-bottom 96 well polypropylene plates and 11 μL of Enzyme mix is added. Enzyme mix is made by combining 5 μL 5× reaction buffer ([…] pH 7.0, 1 mM EDTA), 5 μL casein (Sigma) diluted in H2O to 0.5 mg/mL and 1 μL of TAK1-TAB1 fusion protein that was prediluted to 0.5 mU/μL in 1× enzyme dilution buffer (20 mM MOPS pH 7.0, 0.1 mM EDTA, 0.01% Brij-35, 5% glycerol, 1 mM DTT, 1 mg/ml BSA).
The reactions are started by the addition of 9 μL of mixture containing ATP (20.83 uM) and [^33P]-γ-ATP (0.028 μCi/μL).
The assay is stopped 90 minutes after incubation at 30° C. by the addition of 25 μL phosphoric acid (150 mM). The label incorporated into the casein substrate is separated from labeled unincorporated ATP by filtration onto 96-well filter plates using a harvester device. After 6 washes with 75 mM phosphoric acid, the bottom of the filter plates are sealed, and incorporated label is quantified after addition of 40 μL scintillation fluid using TopCount.
Based on these percent inhibition data obtained in at least two independent experiments for the compounds, compounds are ranked using semi-quantitative scores. Table A below lists a number of compounds which have been or can be prepared according to the synthetic methods described herein. Semi-quantitative score: • *>3001 nM • ** 1001-3000 nM • *** 101-1000 nM • ****<100 nM
The pIC50 is the negative decadic logarithm of the IC50, by convention in mol/L. Low values mean a large IC50, high ones a small IC50. With `O=C1NCc2cc(-c3ccc(Nc4ccc(-n5cccn5)cc4)c4nccn34)ccc21` [Compound 30, 5-(8-(4-(1H-pyrazol-1-yl)phenylamino)imidazo[1,2-a]pyridin-5-yl)isoindolin-1-one], the pIC50 was 5.52 to 6.00. In the case of `O=C1NCc2cc(-c3ccc(Nc4ccc(-n5cncn5)cc4)c4nccn34)ccc21` [Compound 31, 5-(8-(4-(1H-1,2,4-triazol-1-yl)phenylamino)imidazo[1,2-a]pyridin-5-yl)isoindolin-1-one] it was 6.00 to 7.00; in that of `O=C(NCc1cccc(-n2cccc2)c1)c1ccc(Nc2ccc(-c3ccc4c(c3)CNC4=O)n3ccnc23)cc1` [Compound 35, 4-[5-(1-Oxo-2,3-dihydro-1H-isoindol-5-yl)-imidazo[1,2-a]pyridin-8-ylamino]-N-(3-pyrrol-1-yl-benzyl)-benzamide], 6.00 to 7.00; in that of `CC1CCCN(C2CCN(C(=O)c3ccc(Nc4ccc(-c5ccc6c(c5)CNC6=O)n5ccnc45)cc3)CC2)C1` (stereo not shown) [Compound 54, 5-{8-[4-(3-Methyl-[1,4′]bipiperidinyl-1′-carbonyl)-phenylamino]-imidazo [1,2-a]pyridin-5-yl}-2,3-dihydro-isoindol-1-one], 6.00 to 7.00. As to `CC1CCN(C2CCN(C(=O)c3ccc(Nc4ccc(-c5ccc6c(c5)CNC6=O)n5ccnc45)cc3)CC2)CC1` [Compound 55, 5-{8-[4-(4-Methyl-[1,4′]bipiperidinyl-1′-carbonyl)-phenylamino]-imidazo [1,2-a]pyridin-5-yl}-2,3-dihydro-isoindol-1-one], the pIC50 was 6.00 to 7.00. In the case of `O=C(NCCN1CCCCC1)c1ccc(Nc2ccc(-c3ccc4c(c3)CNC4=O)n3ccnc23)cc1` [Compound 56, 4-(5-(1-oxoisoindolin-5-yl)imidazo[1,2-a]pyridin-8-ylamino)-N-(2-(piperidin-1-yl)ethyl)benzamide] it was 6.00 to 7.00; in that of `CC(=O)NCCNC(=O)c1ccc(Nc2ccc(-c3ccc4c(c3)CNC4=O)n3ccnc23)cc1` [Compound 57, N-(2-acetamidoethyl)-4-(5-(1-oxoisoindolin-5-yl)imidazo[1,2-a]pyridin-8-ylamino)benzamide], 6.00 to 7.00. To `COCCNC(=O)c1ccc(Nc2ccc(-c3ccc4c(c3)CNC4=O)n3ccnc23)cc1` [Compound 58, N-(2-methoxyethyl)-4-(5-(1-oxoisoindolin-5-yl)imidazo[1,2-a]pyridin-8-ylamino)benzamide] belongs 6.00 to 7.00; to `CC(C)N1CCN(c2ccc(Nc3ccc(-c4ccc(O)c(F)c4)n4ccnc34)cc2)CC1` [Compound 93], 5.52 to 6.00; to `C[C@@H]1CN(C)[C@@H](C)CN1c1ccc(Nc2ccc(-c3cc[nH]c(=O)c3)n3ccnc23)cc1F` [Compound 97], 6.00 to 7.00. In the case of `C[C@@H]1CN(c2ccc(Nc3ccc(-c4cc[nH]c(=O)c4)n4ccnc34)cc2)C[C@H](C)N1C` [Compound 98] it was 6.00 to 7.00; in that of `C[C@@H]1CN(C)[C@@H](C)CN1c1ccc(Nc2ccc(-c3cc[nH]c(=O)c3)n3ccnc23)cc1` [Compound 99], 6.00 to 7.00; in that of `O=c1cc(-c2ccc(Nc3ccc(C4CCNCC4)cc3)c3nccn23)cc[nH]1` [Compound 100], 6.00 to 7.00. On to `C[C@@H]1CN(c2ccc(Nc3ccc(-c4cc[nH]c(=O)c4)n4ccnc34)cc2F)C[C@H](C)N1C` [Compound 101], for which the pIC50 is 6.00 to 7.00. Take `O=C(c1ccc(Nc2ccc(-c3cc[nH]c(=O)c3)n3ccnc23)cc1)N1CCC(N2CCCCC2)CC1` [Compound 102]: the pIC50 is above 7.00. `CC(C)N1CCN(c2ccc(Nc3ccc(-c4cc[nH]c(=O)c4)n4ccnc34)cc2F)CC1` [Compound 103] had a pIC50 of 6.00 to 7.00.

Regarding `CCN1CCN(c2ccc(Nc3ccc(-c4cc[nH]c(=O)c4)n4ccnc34)cc2Cl)CC1` [Compound 104], the pIC50 is 6.00 to 7.00. For the compound `CC(C)N1CCN(c2ccc(Nc3ccc(-c4cc[nH]c(=O)c4)n4ccnc34)cc2Cl)CC1` [Compound 105], the pIC50 is 6.00 to 7.00. In the case of `O=c1cc(-c2ccc(Nc3ccc(N4CCN(CC(F)F)CC4)cc3)c3nccn23)cc[nH]1` [Compound 110, 4-(8-{4-[4-(2,2-Difluoro-ethyl)-piperazin-1-yl]-phenylamino}-imidazo[1,2-a]pyridin-5-yl)-1H-pyridin-2-one] it was below 5.52. The compound `O=c1cc(-c2ccc(Nc3ccc(N4CCS(=O)(=O)CC4)cc3)c3nccn23)cc[nH]1` [Compound 112, 4-{8-[4-(1,1-Dioxo-1lambda*6*- thiomorpholin-4-yl)-phenylamino]-imidazo[1,2-a]pyridin-5-yl}-1H-pyridin-2-one] gave a pIC50 below 5.52.

`C[C@@H]1CN(c2ccc(Nc3ccc(-c4cc[nH]c(=O)c4)n4ccnc34)cc2)C[C@H](C)O1` [Compound 113, 4-{8-[4-((2R,6S)-2,6-Dimethyl-morpholin-4-yl)-phenylamino)-imidazo[1,2-a]pyridin-5-yl}-1H-pyridin-2-one]: the pIC50 is 5.52 to 6.00. In the case of `O=c1cc(-c2ccc(Nc3ccc(N4CCN5CCCCC5C4)cc3)c3nccn23)cc[nH]1` (stereo not shown) [Compound 114, 4-{8′-[4-(Octahydro-pyrido[1,2-a]pyrazin-2-yl)-phenylamino]-imidazo[1,2-a]pyridin-5-yl}-1H-pyridin-2-one] it was 6.00 to 7.00; in that of `O=c1cc(-c2ccc(Nc3ccc(N4CCCCC4)cc3)c3nccn23)cc[nH]1` [Compound 115, 4-[8-(4-Piperidin-1-yl-phenylamino)-imidazo[1,2-a]pyridin-5-yl]-1H-pyridin-2-one], 5.52 to 6.00; in that of `O=c1cc(-c2ccc(Nc3ccc(N4CCC(F)CC4)cc3)c3nccn23)cc[nH]1` [Compound 116, 4-{8-[4-(4-Fluoro-piperidin-1-yl)-phenylamino]-imidazo[1,2-a]pyridin-5-yl}-1H-pyridin-2-one], 5.52 to 6.00.

In turn, `O=c1cc(-c2ccc(Nc3ccc(N4CCC(F)(F)CC4)cc3)c3nccn23)cc[nH]1` [Compound 117, 4-{8-[4-(4,4-Difluoro-piperidin-1-yl)-phenylamino]-imidazo[1,2-a]pyridin-5-yl}-1H-pyridin-2-one] had a pIC50 below 5.52. `O=c1cc(-c2ccc(Nc3ccc(N4CCCC(F)(F)C4)cc3)c3nccn23)cc[nH]1` [Compound 118, 4-{8-[4-(3,3-Difluoro-piperidin-1-yl)-phenylamino]-imidazo[1,2a]pyridin-5-yl}-1H-pyridin-2-one] showed a pIC50 below 5.52. `c1cn2c(-c3cn[nH]c3)ccc(Nc3ccc(N4CCC(N5CCCCC5)CC4)cc3)c2n1` [Compound 119, (4[1,4′]Bipiperidinyl-1′-yl-phenyl)-[5-(1H-pyrazol-4-yl)-imidazo[1,2-a]pyridin-8-yl]-amine]: the pIC50 is 6.00 to 7.00. In the case of `CC1CCN(C2CCN(c3ccc(Nc4ccc(-c5cc[nH]c(=O)c5)n5ccnc45)cc3)CC2)CC1` [Compound 121, 4-{8-[4-(4-Methyl-[1,4′]bipiperidinyl-1′-yl)-phenylamino]-imidazo[1,2-a]pyridin-5-yl}-1H-pyridin-2-one] it was 6.00 to 7.00; in that of `CC1CCCN(C2CCN(c3ccc(Nc4ccc(-c5cc[nH]c(=O)c5)n5ccnc45)cc3)CC2)C1` (stereo not shown) [Compound 122, 4-{8-[4-(3-Methyl-[1,4′]bipiperidinyl-1′-yl)-phenylamino]-imidazo[1,2-a]pyridin-5-yl}-1H-pyridin-2-one], 6.00 to 7.00. To `O=c1cc(-c2ccc(Nc3ccc(N4CCC(N5CCC(O)CC5)CC4)cc3)c3nccn23)cc[nH]1` [Compound 123, 4-{8-[4-(4-Hydroxy-[1,4′]bipiperidinyl-1′-yl)-phenylamino]-imidazo[1,2-a]pyridin-5-yl}-1H-pyridin-2-one] belongs 5.52 to 6.00. In turn, `O=c1cc(-c2ccc(Nc3ccc(N4CCCC4)c(Cl)c3)c3nccn23)cc[nH]1` [Compound 125, 4-[8-(3-Chloro-4-pyrrolidin-1-yl-phenylamino)-imidazo[1,2-a]pyridin-5-yl]-1H-pyridin-2-one] gave a pIC50 below 5.52.
